Source: ChEMBL document CHEMBL3792297, “Studies on phenothiazines: New microtubule-interacting compounds with phenothiazine A-ring as potent antineoplastic agents” (Bioorg Med Chem, 2016)

Assays:
Assay type in all cases: functional
KM12 = assay: Growth inhibition of human KM12 cells at 10 uM after 48 hrs by SRB assay relative to control; conditions: KM12, 48 h, read-out: GI
NCI-H23 = assay: Growth inhibition of human NCI-H23 cells at 10 uM after 48 hrs by SRB assay relative to control; conditions: NCI-H23, 48 h, read-out: GI
[1] = Growth inhibition of human COLO205 cells at 10 uM after 48 hrs by SRB assay relative to control; conditions: COLO 205, 48 h, read-out: GI
[2] = Growth inhibition of human HOP92 cells at 10 uM after 48 hrs by SRB assay relative to control; conditions: HOP-92, 48 h, read-out: GI
NCI-H460 = assay: Growth inhibition of human NCI-H460 cells at 10 uM after 48 hrs by SRB assay relative to control; conditions: NCI-H460, 48 h, read-out: GI
[3] = Growth inhibition of human PC3 cells at 10 uM after 48 hrs by SRB assay relative to control; conditions: PC-3, 48 h, read-out: GI
SR = assay: Growth inhibition of human SR cells at 10 uM after 48 hrs by SRB assay relative to control; conditions: read-out: GI
[4] = Growth inhibition of human TK10 cells at 10 uM after 48 hrs by SRB assay relative to control; conditions: TK-10, 48 h, read-out: GI
[5] = Growth inhibition of human HCT116 cells at 10 uM after 48 hrs by SRB assay relative to control; conditions: HCT-116, 48 h, read-out: GI
MDA-MB-231 = assay: Growth inhibition of human MDA-MB-231 cells at 10 uM after 48 hrs by SRB assay relative to control; conditions: MDA-MB-231, 48 h, read-out: GI
[6] = Growth inhibition of human Caki1 cells at 10 uM after 48 hrs by SRB assay relative to control; conditions: CAKI-1, 48 h, read-out: GI
[7] = Growth inhibition of human IGROV1 cells at 10 uM after 48 hrs by SRB assay relative to control; conditions: IGROV-1, 48 h, read-out: GI
[8] = Growth inhibition of human BT549 cells at 10 uM after 48 hrs by SRB assay relative to control; conditions: BT-549, 48 h, read-out: GI
A549 = assay: Growth inhibition of human A549 cells at 10 uM after 48 hrs by SRB assay relative to control; conditions: A549, 48 h, read-out: GI
[9] = Growth inhibition of human UACC257 cells at 10 uM after 48 hrs by SRB assay relative to control; conditions: UACC-257, 48 h, read-out: GI
[10] = Growth inhibition of human UACC62 cells at 10 uM after 48 hrs by SRB assay relative to control; conditions: UACC-62, 48 h, read-out: GI
MDA-MB-468 = assay: Growth inhibition of human MDA-MB-468 cells at 10 uM after 48 hrs by SRB assay relative to control; conditions: MDA-MB-468, 48 h, read-out: GI
[11] = Growth inhibition of human SF539 cells at 10 uM after 48 hrs by SRB assay relative to control; conditions: SF-539, 48 h, read-out: GI
[12] = Growth inhibition of human OVCAR5 cells at 10 uM after 48 hrs by SRB assay relative to control; conditions: OVCAR-5, 48 h, read-out: GI
NCI-H226 = assay: Growth inhibition of human NCI-H226 cells at 10 uM after 48 hrs by SRB assay relative to control; conditions: NCI-H226, 48 h, read-out: GI
[13] = Growth inhibition of human OVCAR4 cells at 10 uM after 48 hrs by SRB assay relative to control; conditions: OVCAR-4, 48 h, read-out: GI
[14] = Growth inhibition of human HCT15 cells at 10 uM after 48 hrs by SRB assay relative to control; conditions: HCT-15, 48 h, read-out: GI
EKVX = assay: Growth inhibition of human EKVX cells at 10 uM after 48 hrs by SRB assay relative to control; conditions: read-out: GI
[15] = Growth inhibition of human SNB19 cells at 10 uM after 48 hrs by SRB assay relative to control; conditions: SNB-19, 48 h, read-out: GI
[16] = Growth inhibition of human SW620 cells at 10 uM after 48 hrs by SRB assay relative to control; conditions: SW-620, 48 h, read-out: GI
SK-MEL-5 = assay: Growth inhibition of human SK-MEL-5 cells at 10 uM after 48 hrs by SRB assay relative to control; conditions: SK-MEL-5, 48 h, read-out: GI
HT-29 = assay: Growth inhibition of human HT-29 cells at 10 uM after 48 hrs by SRB assay relative to control; conditions: HT-29, 48 h, read-out: GI
NCI-H322M = assay: Growth inhibition of human NCI-H322M cells at 10 uM after 48 hrs by SRB assay relative to control; conditions: read-out: GI
NCI-H522 = assay: Growth inhibition of human NCI-H522 cells at 10 uM after 48 hrs by SRB assay relative to control; conditions: NCI-H522, 48 h, read-out: GI
[17] = Growth inhibition of human SKOV3 cells at 10 uM after 48 hrs by SRB assay relative to control; conditions: SK-OV-3, 48 h, read-out: GI
SK-MEL-28 = assay: Growth inhibition of human SK-MEL-28 cells at 10 uM after 48 hrs by SRB assay relative to control; conditions: SK-MEL-28, 48 h, read-out: GI
786-0 = assay: Growth inhibition of human 786-0 cells at 10 uM after 48 hrs by SRB assay relative to control; conditions: 786-0, 48 h, read-out: GI
CCRF-CEM = assay: Growth inhibition of human CCRF-CEM cells at 10 uM after 48 hrs by SRB assay relative to control; conditions: read-out: GI
A498 = assay: Growth inhibition of human A498 cells at 10 uM after 48 hrs by SRB assay relative to control; conditions: A498, 48 h, read-out: GI
MCF7 = assay: Growth inhibition of human MCF7 cells at 10 uM after 48 hrs by SRB assay relative to control; conditions: MCF7, 48 h, read-out: GI
MDA-MB-435 = assay: Growth inhibition of human MDA-MB-435 cells at 10 uM after 48 hrs by SRB assay relative to control; conditions: MDA-MB-435, 48 h, read-out: GI
K562 = assay: Growth inhibition of human K562 cells at 10 uM after 48 hrs by SRB assay relative to control; conditions: K562, 48 h, read-out: GI
[18] = Growth inhibition of human HL-60(TB) cells at 10 uM after 48 hrs by SRB assay relative to control; conditions: HL-60, 48 h, read-out: GI

SMILES	inhibition of growth at 10 µM (KM12) [%]	inhibition of growth at 10 µM (NCI-H23) [%]	inhibition of growth at 10 µM [1] [%]	inhibition of growth at 10 µM [2] [%]	inhibition of growth at 10 µM (NCI-H460) [%]	inhibition of growth at 10 µM [3] [%]	inhibition of growth at 10 µM (SR) [%]	inhibition of growth at 10 µM [4] [%]	inhibition of growth at 10 µM [5] [%]	inhibition of growth at 10 µM (MDA-MB-231) [%]	inhibition of growth at 10 µM [6] [%]	inhibition of growth at 10 µM [7] [%]	inhibition of growth at 10 µM [8] [%]	inhibition of growth at 10 µM (A549) [%]	inhibition of growth at 10 µM [9] [%]	inhibition of growth at 10 µM [10] [%]	inhibition of growth at 10 µM (MDA-MB-468) [%]	inhibition of growth at 10 µM [11] [%]	inhibition of growth at 10 µM [12] [%]	inhibition of growth at 10 µM (NCI-H226) [%]	also measured
O=C(c1ccc(Cl)cc1Cl)N1c2ccccc2Sc2ccccc21	50	26	55	28	82	56	68	27	77	31	50	39	45	46	36	57	49	58	29	32	inhibition of growth at 10 µM [13]: 18%; inhibition of growth at 10 µM [14]: 70%; inhibition of growth at 10 µM (EKVX): 24%; inhibition of growth at 10 µM [15]: 43%; inhibition of growth at 10 µM [16]: 62%; inhibition of growth at 10 µM (SK-MEL-5): 65%; inhibition of growth at 10 µM (HT-29): 52%; inhibition of growth at 10 µM (NCI-H322M): 15%; inhibition of growth at 10 µM (NCI-H522): 36%; inhibition of growth at 10 µM [17]: 31%; inhibition of growth at 10 µM (SK-MEL-28): 35%; inhibition of growth at 10 µM (786-0): 33%; inhibition of growth at 10 µM (CCRF-CEM): 43%; inhibition of growth at 10 µM (A498): 31%; inhibition of growth at 10 µM (MCF7): 48%; inhibition of growth at 10 µM (MDA-MB-435): 52%; inhibition of growth at 10 µM (K562): 100%; inhibition of growth at 10 µM [18]: 64%
COc1ccc(C(=O)N2c3ccccc3Sc3ccccc32)c(OC)c1	86	62	100	69	90	89	78	44	91	62	63	47	83	69	23	86	100	100	52	69	inhibition of growth at 10 µM [13]: 43%; inhibition of growth at 10 µM [14]: 81%; inhibition of growth at 10 µM (EKVX): 66%; inhibition of growth at 10 µM [15]: 68%; inhibition of growth at 10 µM [16]: 75%; inhibition of growth at 10 µM (SK-MEL-5): 81%; inhibition of growth at 10 µM (HT-29): 100%; inhibition of growth at 10 µM (NCI-H322M): 38%; inhibition of growth at 10 µM (NCI-H522): 100%; inhibition of growth at 10 µM [17]: 63%; inhibition of growth at 10 µM (SK-MEL-28): 42%; inhibition of growth at 10 µM (786-0): 71%; inhibition of growth at 10 µM (CCRF-CEM): 83%; inhibition of growth at 10 µM (A498): 95%; inhibition of growth at 10 µM (MCF7): 80%; inhibition of growth at 10 µM (MDA-MB-435): 100%; inhibition of growth at 10 µM (K562): 89%; inhibition of growth at 10 µM [18]: 99%
O=C(c1ccc(F)c(Cl)c1)N1c2ccccc2Sc2ccccc21	60	21	55	63	1	60	66	15	69	39	47	29	42	34	39	74	37	38	13	23	inhibition of growth at 10 µM [13]: 20%; inhibition of growth at 10 µM [14]: 73%; inhibition of growth at 10 µM (EKVX): 26%; inhibition of growth at 10 µM [15]: 23%; inhibition of growth at 10 µM [16]: 66%; inhibition of growth at 10 µM (SK-MEL-5): 66%; inhibition of growth at 10 µM (HT-29): 64%; inhibition of growth at 10 µM (NCI-H322M): 0%; inhibition of growth at 10 µM (NCI-H522): 57%; inhibition of growth at 10 µM [17]: 11%; inhibition of growth at 10 µM (SK-MEL-28): 38%; inhibition of growth at 10 µM (786-0): 20%; inhibition of growth at 10 µM (CCRF-CEM): 42%; inhibition of growth at 10 µM (A498): 38%; inhibition of growth at 10 µM (MCF7): 49%; inhibition of growth at 10 µM (MDA-MB-435): 92%; inhibition of growth at 10 µM (K562): 79%; inhibition of growth at 10 µM [18]: 69%
